“And” between values parts separate entries of the source, which are not always exact repeats. Equal values may be shown once.
Assay: Hydrophobicity, dodecane partitioning assay
Type: physicochemical, E. coli Nissle
Description: Hydrophobicity was measured using a standard partitioning assay. Fresh cultures of both strains were grown till log phase (OD600=0.7). The OD was found using Thermo Fischer's NanoDrop^C. The OD546 of the cell (OD1) was adjusted to 0.3 using 10 mM CaCO3 solution. 4 ml of the cell suspension was transferred to individual test tubes having 1 ml of dodecane and vortexed at 2500 rpm for 10 minutes to homogenize the phases. The phases were allowed to separate for 15 minutes. The OD546 of the aqueous phase (OD2) was measured.
The mean percentage of partitioning was calculated using triplicate samples. Partitioning of the bacteria suspension is calculated using Equation (3).

In the case of E. coli Nissle 1917 [Wild Type], the OD2 (OD546 of the aqueous phase after dodecane partitioning) is reported as 0.14 and 0.17, the OD1 (OD546 of the cell suspension before partitioning) is reported as 0.29 and 0.27 and the membrane hydrophobicity (conclusion from phase partitioning) is reported as “hydrophilic”. The “Average Partitioning” value (mean of triplicate samples) was 45.636% and the “Percentage of Partitioning” value (single samples of triplicate) was 51.724% and 37.037% and 48.148%.
